The target in test [1] is T1, GST-rat CK1δ^M82F (Rattus norvegicus, UniProt Q06486, M82F).
T1 construct: made in house; host or cells: bacteria (pGEX-2T)
T1 sequence (Q06486 1-415 M82F): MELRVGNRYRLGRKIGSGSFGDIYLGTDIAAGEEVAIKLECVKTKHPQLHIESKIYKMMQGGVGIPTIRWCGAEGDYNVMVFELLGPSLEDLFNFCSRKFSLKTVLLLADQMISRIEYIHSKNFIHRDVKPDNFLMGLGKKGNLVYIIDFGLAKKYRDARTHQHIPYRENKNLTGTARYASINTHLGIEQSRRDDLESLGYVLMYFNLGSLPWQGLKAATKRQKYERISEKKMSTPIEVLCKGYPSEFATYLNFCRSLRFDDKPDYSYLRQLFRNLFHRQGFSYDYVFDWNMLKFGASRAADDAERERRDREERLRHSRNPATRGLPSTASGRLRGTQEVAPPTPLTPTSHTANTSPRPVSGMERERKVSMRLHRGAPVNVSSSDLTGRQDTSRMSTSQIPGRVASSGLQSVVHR
In words: In vitro kinase assay, gatekeeper mutant. Type of test: biochemical. To be noted: inhibitor at its determined IC50 concentration (Fig. 7). On the procedure:
For the expression of wt rat CK1δ and rat CK1δ^M82F as glutathione S-transferase fusion proteins the plasmids pGEX-2T-CK1δ (FP449) (Knippschild et al. [1997]) and pGEX-2T-CK1δ^M82F (FP1153) (Peifer et al. [2009]) were used.
Expression and purification of the GST-fusion proteins GST-mouse p53^1–64 (FP267), GST-rat CK1δ (FP449), GST-rat CK1δ^M82F (FP1153), GST-mouse CK1δTV1 (FP1170), and GST-mouse CK1δTV2 (FP1171) was carried out as described elsewhere (Wolff et al. [2005]). Expression of fusion proteins FP1170 and 1171 was either performed at 37°C for 2 h, or at 15°C for 14 h. FP449 and FP1153 were always expressed at 15°C for 14 h.
In vitro kinase assays were carried out in the presence of various potential inhibitors of CK1δ at an ATP concentration of 0.01 mM and dimethyl sulfoxide (DMSO) solvent control as described previously (Knippschild et al. [1996]). Where indicated higher ATP concentrations (0.05, 0.1, 0.25 and 0.5 mM) were used. The fusion protein GST-mouse p53^1−64 (FP267) was used as substrate. Recombinant CK1δ kinase domain (CK1δkd, NEB, Frankfurt am Main, Germany), GST-rat CK1δ (FP449), GST-rat CK1δ^M82F (FP1153), GST-mouse CK1δTV1, GST-mouse CK1δTV2 and recombinant human CK1ε (Invitrogen, Karlsruhe, Germany) were used as sources of enzyme. Phosphorylated proteins were separated by SDS-PAGE and the protein bands were visualized on dried gels by autoradiography. The phosphorylated protein bands were excised and quantified by Cherenkov counting.
Previously it has been shown that methionine 82 plays an important role as gatekeeper residue in the docking mode of isoxazoles to the ATP binding pocket since mutation of methionine 82 to phenylalanine blocks binding of this class of CK1δ specific inhibitors (Peifer et al. [2009]) while still binding ATP. Therefore, we now analyzed the effects of exchanging methionine 82 to phenylalanine on the ability of compounds 4, 5 and 6 to inhibit CK1δ activity.

Test [2] has as its target T2, IRAK3 (Homo sapiens, UniProt Q9Y616).
T2 construct: purchased Ambit Biosciences Cooperation, San Diego, USA (KINOMEscan)
Kind of test: KINOMEscan selectivity profiling. Particulars: remaining relative to controls, read-out: %Ctrl @ 10 μM (IRAK3). In kind it is binding. On the procedure: (§1) KINOMEscan™ was performed to determine binding constants of coumpound 5 to 442 eukaryotic kinases by Ambit Biosciences Cooperation, San Diego, USA.

Test [3] has as its target T3, CSNK1G2 (Homo sapiens, UniProt P78368).
T3 construct: purchased Ambit Biosciences Cooperation, San Diego, USA (KINOMEscan)
Kind of test: KINOMEscan selectivity profiling. Type of test: binding. To be noted: remaining relative to controls, read-out: %Ctrl @ 10 μM (CSNK1G2). On the procedure: as §1

The target in test [4] is T4, CSNK1D (Homo sapiens, UniProt P48730).
T4 construct: purchased Ambit Biosciences Cooperation, San Diego, USA (KINOMEscan)
T4 sequence (P48730 whole entry): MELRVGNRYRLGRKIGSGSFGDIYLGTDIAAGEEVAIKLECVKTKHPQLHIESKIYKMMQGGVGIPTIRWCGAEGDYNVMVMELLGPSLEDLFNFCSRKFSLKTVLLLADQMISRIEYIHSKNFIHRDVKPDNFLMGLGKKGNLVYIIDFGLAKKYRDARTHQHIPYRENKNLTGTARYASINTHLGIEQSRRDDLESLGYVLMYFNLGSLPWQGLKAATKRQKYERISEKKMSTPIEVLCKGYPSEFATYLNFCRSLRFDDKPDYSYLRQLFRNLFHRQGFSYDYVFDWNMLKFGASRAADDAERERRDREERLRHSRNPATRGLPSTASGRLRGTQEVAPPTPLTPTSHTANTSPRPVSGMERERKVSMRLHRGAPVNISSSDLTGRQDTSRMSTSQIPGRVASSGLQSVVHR
Kind of test: KINOMEscan selectivity profiling. Type of test: binding. Particulars: remaining relative to controls, read-out: %Ctrl @ 10 μM (CSNK1D). On the procedure: as §1

The target of test [5] is T5, CK1δkd (Rattus norvegicus, UniProt Q06486).
T5 construct: Recombinant CK1δ kinase domain (CK1δkd, NEB, Frankfurt am Main, Germany); purchased NEB, Frankfurt am Main, Germany
T5 sequence (Q06486 9-277 limits assumed): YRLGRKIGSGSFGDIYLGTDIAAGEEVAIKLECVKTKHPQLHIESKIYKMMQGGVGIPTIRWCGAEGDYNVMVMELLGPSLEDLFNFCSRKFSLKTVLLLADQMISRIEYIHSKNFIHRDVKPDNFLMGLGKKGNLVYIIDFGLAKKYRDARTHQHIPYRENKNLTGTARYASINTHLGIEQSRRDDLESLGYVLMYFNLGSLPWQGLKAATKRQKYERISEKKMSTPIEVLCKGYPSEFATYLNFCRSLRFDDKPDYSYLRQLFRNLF
Kind of test: In vitro kinase assay, CK1δ kinase domain. Type of test: biochemical. Particulars: for inhibition of CK1δkd in initial screen: inhibitor 10 μM, 10 μM ATP (Fig. 1a); for mode of inhibition: inhibitor at IC50 concentration, ATP 0.01-0.5 mM (Fig. 6).

The subject of test [6] is Frwt648 cells. In words: Flow cytometry cell cycle analysis. Particulars: Frwt648, 2 and 4 μM, 48 h; range stated jointly for Frwt648 and mKSA and compounds 5 and 6. In kind it is cell-based. On the procedure: Frwt648 cells [generated by SV40-transformation of F111 cells; (Hinzpeter and Deppert [1987])] and mKSA cells [SV40-transformed Balb/c fibroblasts; (Kit et al. [1969])] were grown in Dulbecco’s modified Eagle’s medium (DMEM) supplemented with 5% fetal calf serum (FCS; Biochrom, Berlin, Germany). The fibrosarcoma cell line HT1080 (Rasheed et al. [1974]) was grown in DMEM containing 10% FCS and 2 mM glutamine while both the prostate cancer cell line DU-145 (Stone et al. [1978]) and the ovary tissue cancer cell line OVCAR-3 (Hamilton et al. [1983]) were maintained in RPMI-1640 supplemented with 10% FCS. The pancreatic cancer cell line Colo357 (Morgan et al. [1980]) was grown in DMEM/RPMI (1:1) and the colon adenocarcinoma cell line SW480 (Leibovitz et al. [1976]) in Leibovitz L-15 medium, both containing 10% FCS and 2 mM glutamine. All media were supplemented with 100 U/ml penicillin and 100 μg/ml streptomycin (Gibco, Karlsruhe, Germany) and all cell lines were grown at 37°C in a humidified 5% carbon dioxide atmosphere.
Subconfluent Frwt648, mKSA, Colo357, OVCAR-3, HT1080, DU-145 and SW480 cells were treated with 2 or 4 μM of compounds 5 or 6 for 48 h. Untreated and DMSO treated cells served as control. Cells were harvested, washed once with phosphate-buffered saline (PBS), and prepared for cell cycle analysis using the “Cycle Test Plus Kit” (BD, San Jose, USA). […]
In general terms: In flow cytometry, cells or beads pass a laser one at a time.

T3 sequence (P78368 whole entry): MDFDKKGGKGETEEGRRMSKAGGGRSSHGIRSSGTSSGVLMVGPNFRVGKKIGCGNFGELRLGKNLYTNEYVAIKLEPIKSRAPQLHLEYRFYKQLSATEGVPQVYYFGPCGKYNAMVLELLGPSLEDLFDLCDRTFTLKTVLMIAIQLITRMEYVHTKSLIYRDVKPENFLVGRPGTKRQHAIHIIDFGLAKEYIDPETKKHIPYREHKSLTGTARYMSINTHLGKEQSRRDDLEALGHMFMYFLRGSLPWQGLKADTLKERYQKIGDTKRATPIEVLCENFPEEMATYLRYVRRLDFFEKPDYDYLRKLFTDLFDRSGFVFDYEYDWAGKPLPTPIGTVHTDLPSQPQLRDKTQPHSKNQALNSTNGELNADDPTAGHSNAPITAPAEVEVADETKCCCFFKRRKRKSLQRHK
T2 sequence (Q9Y616 whole entry): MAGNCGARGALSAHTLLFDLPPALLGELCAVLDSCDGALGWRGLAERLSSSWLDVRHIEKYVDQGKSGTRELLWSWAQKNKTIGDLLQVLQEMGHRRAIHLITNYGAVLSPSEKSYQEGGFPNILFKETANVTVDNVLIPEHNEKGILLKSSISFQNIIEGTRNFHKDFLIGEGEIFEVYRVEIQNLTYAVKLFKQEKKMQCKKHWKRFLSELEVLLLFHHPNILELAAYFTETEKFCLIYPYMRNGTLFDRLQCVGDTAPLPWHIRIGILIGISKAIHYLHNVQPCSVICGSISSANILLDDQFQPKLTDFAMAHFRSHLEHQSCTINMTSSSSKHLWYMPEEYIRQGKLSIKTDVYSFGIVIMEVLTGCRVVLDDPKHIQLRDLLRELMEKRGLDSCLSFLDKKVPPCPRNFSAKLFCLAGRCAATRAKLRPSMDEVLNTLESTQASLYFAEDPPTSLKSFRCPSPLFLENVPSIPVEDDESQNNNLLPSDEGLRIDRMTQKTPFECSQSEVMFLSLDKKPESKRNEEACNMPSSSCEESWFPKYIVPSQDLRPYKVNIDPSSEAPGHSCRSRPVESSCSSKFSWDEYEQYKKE

With `O=C(Nc1nc2ccc(C(F)(F)F)cc2[nH]1)c1csc(NC(=O)c2ccccc2OC(F)(F)F)n1` [Compound 5, 2-(2-(Trifluoromethoxy)benzamido)-N-(6-(trifluoromethyl)-1H-benzo[d]imidazol-2-yl)thiazole-4-carboxamide], in test [1], the “kinase activity of GST-CK1δ^M82F in comparison with inhibition of GST-wt CK1δ” value was “much more affected”. Also, the remaining binding at 10 µM was found to be 27% in test [2], 9.9% in test [3] and 2% in test [4]. Also, the “inhibition of CK1δkd in initial screen” value in test [5] is recorded as “significant inhibition”. In addition, the mode of inhibition entry in test [5] was “ATP competitive inhibitors”. The dead cells in test [6] was 35–98%.

As for `O=C(Nc1nc2cc(Cl)c(F)cc2[nH]1)c1csc(NC(=O)c2ccccc2OC(F)(F)F)n1` [Compound 6, N-(5-Chloro-6-fluoro-1H-benzo[d]imidazol-2-yl)-2-(2-(trifluoromethoxy)benzamido)thiazole-4-carboxamide], in test [1], the “kinase activity of GST-CK1δ^M82F in comparison with inhibition of GST-wt CK1δ” value is recorded as “similarly or even less affected”. Also, the concentration for half-maximal inhibition (IC50) in test [5] (0.01 mM ATP, substrate GST-mouse p53^1-64, mean ± SD) came to 0.085 ± 0.01 µM. In addition, in test [5], the “inhibition of CK1δkd in initial screen” value is on record as “significant inhibition” and the mode of inhibition result is “ATP competitive inhibitors”. In addition, in test [6], the dead cells is 35–98%.

The term IC50 denotes the concentration that inhibits the measured activity by half.

For the origin of these results see article PMC3448056, “2-Benzamido-N-(1H-benzo[d]imidazol-2-yl)thiazole-4-carboxamide derivatives as potent inhibitors of CK1δ/ε” (Amino Acids, 2012).
